Results: ChEMBL document CHEMBL4330073, “Discovery and development of small molecule modulators targeting glutamine metabolism” (Eur J Med Chem, 2019)

Assays:
[1] = molecular target: T1, Glutaminase kidney isoform, mitochondrial (Homo sapiens, UniProt O94925); test: Inhibition of GAC (unknown origin)
T1 sequence (O94925 whole entry): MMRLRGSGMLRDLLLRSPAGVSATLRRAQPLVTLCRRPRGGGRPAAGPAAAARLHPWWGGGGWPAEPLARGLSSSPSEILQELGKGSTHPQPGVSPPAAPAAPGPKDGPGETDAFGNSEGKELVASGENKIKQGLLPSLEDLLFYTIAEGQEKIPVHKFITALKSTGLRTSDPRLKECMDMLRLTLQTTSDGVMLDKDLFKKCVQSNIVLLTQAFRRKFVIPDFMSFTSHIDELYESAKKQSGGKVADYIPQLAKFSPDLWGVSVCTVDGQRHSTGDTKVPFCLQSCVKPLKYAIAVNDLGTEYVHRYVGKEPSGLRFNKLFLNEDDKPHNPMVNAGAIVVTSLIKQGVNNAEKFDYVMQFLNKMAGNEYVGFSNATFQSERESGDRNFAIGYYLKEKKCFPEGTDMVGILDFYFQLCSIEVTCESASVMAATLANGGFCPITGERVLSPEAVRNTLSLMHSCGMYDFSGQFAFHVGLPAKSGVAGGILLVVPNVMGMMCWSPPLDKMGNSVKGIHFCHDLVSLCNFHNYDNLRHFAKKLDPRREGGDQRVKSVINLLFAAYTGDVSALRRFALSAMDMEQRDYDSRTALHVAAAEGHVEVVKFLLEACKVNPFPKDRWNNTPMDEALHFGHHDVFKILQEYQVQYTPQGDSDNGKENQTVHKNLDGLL

[2] = molecular target: T2, Cystine/glutamate transporter (Homo sapiens, UniProt Q9UPY5); test: Inhibition of xCT-mediated cystein/glutamate transporter (unknown origin) assessed as reduction in L-[14C]cyctein uptake
T2 sequence (Q9UPY5 whole entry): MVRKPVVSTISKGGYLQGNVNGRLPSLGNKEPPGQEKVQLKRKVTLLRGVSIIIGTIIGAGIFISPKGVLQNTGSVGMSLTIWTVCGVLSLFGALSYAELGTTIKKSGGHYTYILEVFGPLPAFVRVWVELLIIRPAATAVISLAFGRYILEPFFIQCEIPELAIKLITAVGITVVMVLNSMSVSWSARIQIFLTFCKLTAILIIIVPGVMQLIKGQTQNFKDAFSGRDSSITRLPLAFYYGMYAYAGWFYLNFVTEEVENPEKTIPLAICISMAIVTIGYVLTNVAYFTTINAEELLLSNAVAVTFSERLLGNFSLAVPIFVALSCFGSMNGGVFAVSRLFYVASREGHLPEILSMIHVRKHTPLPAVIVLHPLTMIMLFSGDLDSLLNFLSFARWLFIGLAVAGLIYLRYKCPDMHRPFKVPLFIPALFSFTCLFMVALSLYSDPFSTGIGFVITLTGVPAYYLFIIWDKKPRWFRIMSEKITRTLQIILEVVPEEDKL

[3] = molecular target: T1, Glutaminase kidney isoform, mitochondrial; test: Inhibition of human GAC after 10 mins by glutamate oxidase coupled Amplex UltraRed dye based assay
[4] = molecular target: T1, Glutaminase kidney isoform, mitochondrial; test: Inhibition of recombinant GAC (unknown origin) after 15 mins in presence of NADPH by glutamate oxidase coupled spectrophotometric analysis
Bos taurus = species: Bos taurus; test: Inhibition of bovine GDH
[5] = molecular target: T3, Glutaminase kidney isoform, mitochondrial (Homo sapiens) (UniProt O94925); test: Inhibition of recombinant GAC (unknown origin) at 0.1 uM after 15 mins in presence of NADPH by glutamate oxidase coupled spectrophotometric analysis relative to control
T3 sequence (whole entry): T1 sequence (O94925 whole entry)

| SMILES | IC50 [1] [nM] | further results |
| --- | --- | --- |
| O=C(Cc1ccccc1)Nc1nnc(CCCCn2ccc(NC(=O)Cc3ccccc3)c(F)c2=O)s1 | < 100 | – |
| O=C(O)c1cc(C#Cc2ccc(S(=O)(=O)Nc3ccccn3)cc2)ccc1O | – | IC50 [2]: 70000 nM |
| CNC(=O)c1cn(CCCCc2ccc(C(=O)NCc3ccccc3)nn2)nn1 | – | IC50 [3]: < 100 nM |
| O=C(Cc1ccccc1)Nc1nnc([C@H]2CC[C@H](c3nnc(NC(=O)Cc4ccccc4)s3)C2)s1 (racemic) | 100 to 500 | – |
| O=C(O)c1cc(/N=N/c2ccc(S(=O)(=O)Nc3ccccn3)cc2)ccc1O [SULFASALAZINE] | – | IC50 [2]: 160 to 30000 nM |
| O=C(NCc1cccc(C(F)(F)F)c1)c1cn(CCCCn2cc(C(=O)NCc3cccc(C(F)(F)F)n3)nn2)nn1 | – | IC50 [3]: < 100 nM |
| O=C(NCc1ccccc1)c1cn(CCCCn2cc(C(=O)NCc3cccc(C(F)(F)F)n3)nn2)nn1 | – | IC50 [3]: 100 to 500 nM |
| O=C(Cc1ccccc1)Nc1ccn(CCCCn2ccc(NC(=O)Cc3ccccc3)nc2=O)c(=O)n1 | > 500 | – |
| O=C(Cc1ccccc1)Nc1ccn(CCCCc2nnc(NC(=O)Cc3ccccc3)s2)c(=O)n1 | < 100 | – |
| O=C(Cc1ccccc1)Nc1ccn(CCCCc2ccc(NC(=O)Cc3cccc(OC(F)(F)F)c3)nn2)c(=O)c1 | < 100 | – |
| O=C(Cc1ccccc1)Nc1nnc([C@@H]2CC[C@H](c3nnc(NC(=O)Cc4ccccc4)s3)C2)s1 | 1000 to 2000 | – |
| O=C(Cc1ccccc1)Nc1ccn(CCCCn2cc(C(=O)NCc3cccc(OC(F)(F)F)c3)nn2)c(=O)c1 | < 100 | – |
| O=C(Cc1ccccc1)Nc1ccn(CCCCn2cc(C(=O)NCc3cccc(OC(F)(F)F)c3)nn2)c(=O)c1F | < 100 | – |
| O=C(Cc1cccc(OC(F)(F)F)c1)Nc1ccc(CCCCc2nnc(NC(=O)Cc3ccccn3)s2)cn1 | – | IC50 [4]: 50 to 100 nM |
| O=C(O[C@@H]1Cc2c(O)cc(O)cc2O[C@@H]1c1cc(O)c(O)c(O)c1)c1cc(O)c(O)c(O)c1 | – | ED50 (Bos taurus): 300 nM |
| O=C(Cc1ccccc1)Nc1nnc(CCCCn2cc(C(=O)NCc3ccccc3)nn2)s1 | – | IC50 [3]: < 100 nM |

| SMILES | IC50 [1] [nM] | further results |
| --- | --- | --- |
| O=C(Cc1ccccc1)Nc1ccn(CCCCc2nnc(NC(=O)Cc3ccccc3)s2)c(=O)c1 | < 100 | – |
| O=C(O[C@@H]1Cc2c(O)cc(O)cc2O[C@@H]1c1ccc(O)c(O)c1)c1cc(O)c(O)c(O)c1 | – | ED50 (Bos taurus): 300 nM |
| O=C(NCc1ccccc1)c1cn(CCCCc2cc3cc(Cc4ccccc4)[nH]c3nn2)nn1 | < 100 | – |
| O=C(Cc1cccc(OC(F)(F)F)c1)Nc1ccc(CCCCc2nnc(NC(=O)Cc3ccccn3)s2)nc1 | – | inhibition [5]: < 25% |
| O=C(Cc1ccccc1)Nc1nnc(CCCCc2cc3cc(Cc4ccccc4)[nH]c3nn2)s1 | < 100 | – |
| O=C(Cc1ccccc1)Nc1nnc([C@H]2CCC[C@H](c3nnc(NC(=O)Cc4ccccc4)s3)C2)s1 (racemic) | < 100 | – |
| O=C(Cc1ccccc1)Nc1nnc(C[C@H]2C[C@@H]2Cc2nnc(NC(=O)Cc3ccccc3)s2)s1 (racemic) | 100 to 500 | – |
| O=C(Cc1cccc(OC(F)(F)F)c1)Nc1ncc(CCCCc2nnc(NC(=O)Cc3ccccn3)s2)cn1 | – | inhibition [5]: < 25% |
| O=C(Cc1ccccc1)Nc1ccn(CCCCc2cc3cc(Cc4ccccc4)[nH]c3nn2)c(=O)c1 | < 100 | – |
| O=C(Cc1ccccc1)Nc1nnc([C@@H]2CCC[C@H](c3nnc(NC(=O)Cc4ccccc4)s3)C2)s1 | 1000 to 2000 | – |
| O=C(O)c1cc(/C=C/c2ccc(S(=O)(=O)Nc3ccccn3)cc2)ccc1O | – | IC50 [2]: 30000 nM |
| O=C(Cc1ccccc1)Nc1nnc(CCCCc2cnc3[nH]c(Cc4ccccc4)nc3c2)s1 | > 500 | – |
| O=C(Cc1cccc(OC(F)(F)F)c1)Nc1cnc(CCCCc2nnc(NC(=O)Cc3ccccn3)s2)cn1 | – | inhibition [5]: < 25% |
| O=C(NCC1CCCCC1)c1cn(CCCCn2cc(C(=O)NCC3CCCCC3)nn2)nn1 | – | IC50 [3]: > 500 nM |
| Cc1nc(NC(=O)Cc2cccc(OC(F)(F)F)c2)ccc1CCCCc1nnc(NC(=O)Cc2ccccn2)s1 | – | inhibition [5]: < 25% |
